Literature values as cited in patent US20100055178A1, “ENTERIC-COATED CREATINE COMPOSITIONS AND METHODS OF USE THEREOF” (priority 2008, published 2010).

Assays:
[1] = 5 grams, 4-6 times a day, for two or more days, oral
[2] = acidic solutions, pH 3-6

SMILES: CN(CC(=O)O)C(=N)N [creatine]
- total creatine concentration [1]: significant increase
- rate of conversion of creatine to creatinine [2]: almost instantaneous
